This passage reports pKa and Drug uptake results from ChEMBL document CHEMBL1777758, “Selective labeling and monitoring pH changes of lysosomes in living cells with fluorogenic pH sensors” (Bioorg Med Chem Lett, 2011).

A short description of data set [1]: Dissociation constant, pKa of the compound. Type of data set: physicochemical.
Data set [2] in a line: Drug uptake in lysosomes of BPAEC at 1 uM after 30 mins by fluorescence microscopy. Type of data set: ADME, Bos taurus, Lysosome. The settings on record: cattle, 0.5 h.

What is called pKa is the pH at which an ionisable group is half protonated. A higher pKa goes with a group that holds its proton tightly.

As to `CC1=CC(C)=[N+]2C1=C(c1ccc(N(C)C)cc1)c1c(C)cc(C)n1[B-]2(F)F`, the pKa in data set [1] worked out at 3.2. Moreover, the Drug uptake result in data set [2] is on record as “Active”.
In the case of `CCN(CC)c1ccc(C2=C3C(C)=CC(C)=[N+]3[B-](F)(F)n3c(C)cc(C)c32)cc1`, the pKa in data set [1] came to 5.2. In addition, the Drug uptake entry in data set [2] is “Active”.
The molecule `CCN(CCCC(=O)OC)c1ccc(C2=C3C(C)=CC(C)=[N+]3[B-](F)(F)n3c(C)cc(C)c32)cc1` showed a pKa in data set [1] of 3.2. Besides, in data set [2], the Drug uptake result is on record as “Active”.
As to `CCN(CC)c1ccc(C2=C3C=CC(CCC(=O)OC)=[N+]3[B-](F)(F)n3c(CCC(=O)OC)ccc32)cc1`, the pKa in data set [1] turned out to be 3.2. Moreover, the Drug uptake entry in data set [2] is “Active”.
